These results are taken from PubChem BioAssay AID328 (DTP/NCI, 2004).

The subject of the assay is BDF1 mice, P388 leukemia ip, median survival T/C. In words: NCI In Vivo Anticancer Drug Screen. Data for tumor model P388 Leukemia (intraperitoneal) in B6D2F1 (BDF1) mice. The note with it: endpoint: median survival time, higher = longer survival. In short, it runs like this: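 In tumour-bearing mice, survival after compound treatment is set against the vehicle group and given as a quotient.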

Setting [1] is: dose: 50.0 mg/kg/injection, schedule: Q01DX009 (ip), vehicle: saline with Tween-80.
The mark [2] stands for this setting: dose: 100.0 mg/kg/injection, schedule: Q01DX009 (ip), vehicle: saline with Tween-80.
Setting [3] is: dose: 12.5 mg/kg/injection, schedule: Q01DX009 (ip), vehicle: saline.
[4] abbreviates: dose: 6.25 mg/kg/injection, schedule: Q01DX009 (ip), vehicle: saline.
Setting [5] is: dose: 25.0 mg/kg/injection, schedule: Q01DX009 (ip), vehicle: saline.
Setting [6] is: dose: 200.0 mg/kg/injection, schedule: Q01DX009 (ip), vehicle: saline with Tween-80.
Where [7] appears, read: dose: 100.0 mg/kg/injection, schedule: Q01DX009 (ip), vehicle: Klucel (hydroxypropylcellulose) (HPC).
[8] abbreviates: dose: 100.0 mg/kg/injection, schedule: Q04DX003 (ip), vehicle: Klucel (hydroxypropylcellulose) (HPC).
The mark [9] stands for this setting: dose: 100.0 mg/kg/injection, schedule: Q04DX003 (ip), vehicle: saline with Tween-80.
The mark [10] stands for this setting: dose: 200.0 mg/kg/injection, schedule: Q04DX003 (ip), vehicle: saline with Tween-80.
Setting [11] is: dose: 400.0 mg/kg/injection, schedule: Q04DX003 (ip), vehicle: saline with Tween-80.

Where “and” joins values, the source holds several entries; their conditions need not be identical. Identical values can stand only once. Inconclusive results and toxic doses are left out.

As to `C=C1C(=O)OC2C1C(OC(=O)/C(C)=C/C)CC(O)(CCl)C1C(OC(C)=O)C=C(C)C21O` (stereo unspecified), the T/C was 100 % of control (dose: 5.0 mg/kg/injection, schedule: Q01DX010 (ip), vehicle: carboxymethylcellulose (CMC)); 100 % of control (dose: 10.0 mg/kg/injection, schedule: Q01DX010 (ip), vehicle: carboxymethylcellulose (CMC)); 100 % of control (dose: 20.0 mg/kg/injection, schedule: Q01DX010 (ip), vehicle: carboxymethylcellulose (CMC)); 116 % of control (dose: 25.0 mg/kg/injection, schedule: Q01DX010 (ip), vehicle: saline); 100 % of control (dose: 50.0 mg/kg/injection, schedule: Q01DX010 (ip), vehicle: saline); 155 % of control (dose: 100.0 mg/kg/injection, schedule: Q01DX010 (ip), vehicle: saline).
Consider `C/C(CC(C)(C)c1ccccc1)=N/NC(N)=O`, for which the T/C (dose: 50.0 mg/kg/injection, schedule: Q04DX003 (ip), vehicle: saline sonified) is 90 % of control; the T/C (dose: 100.0 mg/kg/injection, schedule: Q04DX003 (ip), vehicle: saline sonified) was 100 % of control; the T/C (dose: 200.0 mg/kg/injection, schedule: Q04DX003 (ip), vehicle: saline sonified) was 95 % of control.
For the molecule `O=C(Cl)C1CCCCC1`, the T/C runs as follows: under setting [1], 100 % of control; under setting [2], 104 % of control.
For `c1ccc(C(c2ccccc2)[n+]2ccccc2)cc1`, the T/C by setting is: (dose: 3.13 mg/kg/injection, schedule: Q01DX009 (ip), vehicle: saline) 91 % of control; under setting [3], 114 % of control.
Turning to `COc1ccc(CC[N+]2=Cc3cc(OC)c(OC)cc3CC2)cc1OC`, the T/C is 104 % of control and 111 % of control under setting [4]; 100 % of control under setting [3]; 109 % of control (dose: 12.5 mg/kg/injection, schedule: Q04DX003 (ip), vehicle: saline); 100 % of control and 104 % of control under setting [5]; 117 % of control (dose: 25.0 mg/kg/injection, schedule: Q04DX003 (ip), vehicle: saline); 95 % of control and 103 % of control and 107 % of control (dose: 50.0 mg/kg/injection, schedule: Q01DX009 (ip), vehicle: saline). Besides, the T/C was 101 % of control and 103 % of control (dose: 50.0 mg/kg/injection, schedule: Q04DX003 (ip), vehicle: saline); 98 % of control (dose: 100.0 mg/kg/injection, schedule: Q01DX009 (ip), vehicle: saline); 95 % of control (dose: 150.0 mg/kg/injection, schedule: Q01DX009 (ip), vehicle: saline).
Regarding `COc1ccc(/C=C2\SC(=S)N(CCCN3CCOCC3)C2=O)c(OC)c1`, the T/C is 97 % of control under setting [1], 92 % of control under setting [2] and 95 % of control under setting [6].
For `CCCCCCOP(=O)(CCCCCC)OCCCCCC`, the T/C was 108 % of control (dose: 25.0 mg/kg/injection, schedule: Q01DX009 (ip), vehicle: Klucel (hydroxypropylcellulose) (HPC)); 100 % of control (dose: 25.0 mg/kg/injection, schedule: Q04DX003 (ip), vehicle: Klucel (hydroxypropylcellulose) (HPC)); 104 % of control (dose: 50.0 mg/kg/injection, schedule: Q01DX009 (ip), vehicle: Klucel (hydroxypropylcellulose) (HPC)); 95 % of control (dose: 50.0 mg/kg/injection, schedule: Q04DX003 (ip), vehicle: Klucel (hydroxypropylcellulose) (HPC)); 113 % of control under setting [7]; 100 % of control under setting [8].
In the case of `[NH2-].[NH2-].[NH2-].[NH2-].[Pt+4]`, the T/C is 90 % of control (dose: 12.5 mg/kg/injection, schedule: Q01DX009 (ip), vehicle: saline with Tween-80); 100 % of control (dose: 25.0 mg/kg/injection, schedule: Q01DX009 (ip), vehicle: saline with Tween-80); 90 % of control under setting [1].
`CCOC(=O)C1C(C)OC(=O)C(Br)C1C` (stereo unspecified): the T/C is 97 % of control under setting [1], 98 % of control under setting [2] and 104 % of control under setting [6].
`CC1CCC2C(C1)N(C(C)C)OC2(C)C` (stereo unspecified): the T/C under setting [9] was 109 % of control, the T/C under setting [10] was 100 % of control and the T/C under setting [11] is 90 % of control.
Turning to `CCOc1ccccc1NC(=O)c1ccc(Cl)cc1`, the T/C is 90 % of control (dose: 100.0 mg/kg/injection, schedule: Q01DX001 (ip), vehicle: saline with Tween-80); 90 % of control (dose: 200.0 mg/kg/injection, schedule: Q01DX001 (ip), vehicle: saline with Tween-80); 95 % of control (dose: 400.0 mg/kg/injection, schedule: Q01DX001 (ip), vehicle: saline with Tween-80).
Consider `SC1CC[N-]CC1.SC1CC[N-]CC1.[Cl][Pt+2][Cl]`, for which the T/C runs as follows: (dose: 50.0 mg/kg/injection, schedule: Q01DX009 (ip), vehicle: water) 107 % of control; (dose: 100.0 mg/kg/injection, schedule: Q01DX009 (ip), vehicle: water) 91 % of control; (dose: 100.0 mg/kg/injection, schedule: Q04DX003 (ip), vehicle: water) 98 % of control; (dose: 200.0 mg/kg/injection, schedule: Q04DX003 (ip), vehicle: water) 98 % of control; (dose: 400.0 mg/kg/injection, schedule: Q04DX003 (ip), vehicle: water) 96 % of control.
`CCOC(=O)C(Cc1ccc(OC)c(OC)c1)C(Cc1ccc(OC)c(OC)c1)C(=O)OCC` (stereo unspecified): the T/C was 90 % of control under setting [2] and 104 % of control under setting [6].
For `CCOC(=O)C(CC(OCC)OCC)C(=O)OCC`, the T/C is 100 % of control under setting [2]; 104 % of control under setting [9]; 91 % of control under setting [6]; 113 % of control under setting [10]; 122 % of control (dose: 400.0 mg/kg/injection, schedule: Q01DX009 (ip), vehicle: saline with Tween-80); 113 % of control under setting [11].
Regarding `OC12CCC[N+]1(Cc1ccccc1)CCC2` (stereo unspecified), for the setting “dose: 25.0 mg/kg/injection, schedule: Q01DX010 (ip), vehicle: carboxymethylcellulose (CMC)”, the T/C is 90 % of control.
For the molecule `COc1ccc(/C=C/C(=O)c2ccc(OCc3ccccc3)c(OC)c2)cc1OC`, the T/C (dose: 50.0 mg/kg/injection, schedule: Q04DX003 (ip), vehicle: saline with Tween-80) was 105 % of control; the T/C under setting [9] was 99 % of control; the T/C under setting [10] was 87 % of control; the T/C under setting [11] was 87 % of control.
Turning to `Cc1cc(C)[n+](C)c2cc3ccccc3cc12`, the T/C (dose: 50.0 mg/kg/injection, schedule: Q01DX005 (ip), vehicle: saline with Tween-80) is 155 % of control.
For `CCCCc1[nH]nc2c1C(=O)C(Nc1ccccc1)=CC2=O`, the T/C is 103 % of control under setting [9], 100 % of control under setting [10] and 100 % of control under setting [11].
On to `O=C1CC=Nc2ccc([N+](=O)[O-])cc21`, for which the T/C is 100 % of control under setting [8]; 90 % of control (dose: 200.0 mg/kg/injection, schedule: Q04DX003 (ip), vehicle: Klucel (hydroxypropylcellulose) (HPC)); 95 % of control (dose: 400.0 mg/kg/injection, schedule: Q04DX003 (ip), vehicle: Klucel (hydroxypropylcellulose) (HPC)).
`COc1ccc(OC)c(NC(=O)Nc2c(C)n(C)n(-c3ccccc3)c2=O)c1`: the T/C is, setting by setting: under setting [7], 105 % of control; (dose: 200.0 mg/kg/injection, schedule: Q01DX009 (ip), vehicle: Klucel (hydroxypropylcellulose) (HPC)) 90 % of control; (dose: 400.0 mg/kg/injection, schedule: Q01DX009 (ip), vehicle: Klucel (hydroxypropylcellulose) (HPC)) 105 % of control.
For `CCCCC(=O)NC(=O)c1ccccc1`, the T/C is 104 % of control under setting [2]; 108 % of control under setting [9]; 104 % of control under setting [6]; 104 % of control under setting [10]; 100 % of control under setting [11].
Regarding `CCCCNC1=C(N2CC2)C(=O)C(NCCCC)=C(N2CC2)C1=O`, the T/C reads like this: (dose: 1.25 mg/kg/injection, schedule: Q01DX009 (ip), vehicle: saline) 107 % of control; (dose: 5.0 mg/kg/injection, schedule: Q01DX009 (ip), vehicle: saline) 87 % of control.
Take `C=C1C(=O)OC2CC(C)C3C4OC4C(O)C3(C)C(O)C12` (stereo unspecified): the T/C was 100 % of control under setting [4]; 111 % of control (dose: 9.38 mg/kg/injection, schedule: Q01DX009 (ip), vehicle: saline); 100 % of control under setting [3]; 101 % of control (dose: 16.5 mg/kg/injection, schedule: Q01DX009 (ip), vehicle: saline); 120 % of control (dose: 18.75 mg/kg/injection, schedule: Q01DX009 (ip), vehicle: saline); 104 % of control and 108 % of control under setting [5]. The T/C is 112 % of control (dose: 37.5 mg/kg/injection, schedule: Q01DX009 (ip), vehicle: saline) and 110 % of control (dose: 56.25 mg/kg/injection, schedule: Q01DX009 (ip), vehicle: saline).
